Results as given in US4500545A, “Hydroxyaminotetralincarboxamides” (Eli Lilly and Company, priority 1984, dated 1985).
“Also recorded” adds a separate entry of the source.

Experiments:
[1] = system: 6-hydroxydopamine-lesioned rats (nigro-neostriatal-lesioned), turning behavior; experiment: Turning behavior in 6-hydroxydopamine-lesioned rats; assay type: in vivo, rat; conditions: 1 mg./kg. intraperitoneal; for Number of turns (average): counted over a 15-minute period after latency
Excerpt: Compounds with dopaminergic or dopamine agonist activity also affect turning behavior in a test procedure utilizing 6-hydroxydopamine-lesioned rats. In this test, nigro-neostriatal-lesioned rats, prepared by the procedure of Ungerstedt and Arbuthnott, Brain Res, 24, 485 (1970), are employed. A compound having dopamine agonist activity, upon injection, causes the rats to turn in circles contralateral to the side of the lesion. After a latency period, which varies from compound to compound, the number of turns is counted over a 15-minute period. The drugs to be administered are dissolved in water and the resulting aqueous solution injected into the rat by the intraperitoneal route at a 1 mg./kg. dose level.

[2] = system: mean arterial blood pressure, anesthetized spontaneously hypertensive rats; experiment: Blood pressure lowering in anesthetized spontaneously hypertensive rats (SHR); assay type: in vivo, rat (spontaneously hypertensive); conditions: ± standard error
Protocol: As previously stated, the compounds of this invention are dopamine agonists. As such, one of their properties, shared by many dopamine agonists, is the ability to lower blood pressure in anesthetized spontaneously hypertensive rats (SHR). Table 1 which follows gives the results of testing compounds of this invention which lowered the blood pressure of anesthetized SHR at dose levels of 1 mg./kg. or lower. In the Table, the first 4 columns give the substitution pattern of the hydroxyaminonaphthalene carboxamide and the second 4 columns the percent blood pressure lowering±standard error for the particular compound at 4 different dose levels.

prolactin secretion = experiment: Prolactin secretion inhibition in reserpine-treated rats; assay type: in vivo, rat (adult male Sprague-Dawley); conditions: 1 mg./kg. intraperitoneal; reserpine-pretreated male rats; serum 1 hour after treatment
Protocol: The compounds of this invention are also useful as inhibitors of prolactin secretion. Dopaminergic drugs with such activity can be employed in the treatment of inappropriate lactation, such as postpartum lactation and galactorrhea. […] Each rat received an intraperitoneal injection of 2.0 mg. of reserpine in aqueous suspension 18 hours before administration of the test compound. The purpose of the reserpine was to keep prolactin levels uniformly elevated. The compounds under test were dissolved in water and were injected intraperitoneally at a 1 mg./kg. dose level. Each compound was administered to a group of 10 rats, and a control group of 10 intact males received an equivalent amount of solvent only. One hour after treatment all rats were killed by decapitation, and 150 μl. aliquots of serum were assayed for prolactin.
In the table, column 1 gives the name of the compound and column 2, the percent inhibition of prolactin secretion. The dosage was 1 mg./kg.

dopamine receptor = conditions: literature; cited from earlier work
[3] = literature; cited from earlier work

Row | Structure (SMILES) | Percent lowering of mean arterial blood pressure ([2]; 1 mg./kg.) | Percent lowering of mean arterial blood pressure ([2]; 7 mcg./kg.) | Percent lowering of mean arterial blood pressure ([2]; 10 mcg./kg.) | Percent lowering of mean arterial blood pressure ([2]; 100 mcg./kg.) | Percent Inhibition of Prolactin Secretion (prolactin secretion) | dopamine-like activity (in words) (dopamine receptor) | other results
1 | CCCN(CCC)C1CCc2cc(O)c(C(N)=O)cc2C1 (racemic) [dl-3-Hydroxy-7-di-n-propylamino-5,6,7,8-tetrahydro-2-naphthalenecarboxamide] | -41.9 ± 1.6% | -6.8 ± 0.5% | -19.6 ± 0.8% | -35.9 ± 2.3% | 88% |  | Percentage of rats exhibiting turning behavior [1]: 75%; Number of turns (average) [1]: 71
2 | CN(C)C1CCc2cc(O)c(C(N)=O)cc2C1 (racemic) [dl-3-hydroxy-7-dimethylamino-5,6,7,8-tetrahydro-2-naphthalenecarboxamide] | -32.5 ± 2.2% | -6.2 ± 0.7% | -14.0 ± 0.5% | -25.1 ± 3.0% | 36% |  | Percentage of rats exhibiting turning behavior [1]: 50%; Number of turns (average) [1]: 20
3 | CN(C)C1CCc2c(ccc(O)c2C(N)=O)C1 (racemic) [R=CONH2, R^1=H, R^2=Me, R^3=Me, dl-2-hydroxy-6-dimethylamino-5,6,7,8-tetrahydro-1-naphthalenecarboxamide] | -6.0 ± 0.5% | -6.8 ± 0.3% | -5.7 ± 0.3% | -6.7 ± 0.8% |  |  | 
4 | CN(C)C1CCc2cc(O)c(O)cc2C1 (stereo not drawn) [6,7-dihydroxy isomer] |  |  |  |  |  | presynaptic dopamine receptor agonist | 
5 | NC(=O)c1c(O)ccc2c1CCC(N)C2 (racemic) [dl-2-Hydroxy-6-amino-5,6,7,8-tetrahydronaphthalene-1-carboxamide] |  |  |  |  | 13% |  | 
6 | NC(=O)c1cc2c(cc1O)CCC(N)C2 (racemic) [dl-3-Hydroxy-7-amino-5,6,7,8-tetrahydro-2-naphthlenecarboxamide] | -18.3 ± 4.3% | -3.6 ± 0.4% | -5.2 ± 0.8% | -10.2 ± 1.2% | 18% |  | 
7 | CC(C)NC1CCc2c(ccc(O)c2CO)C1O (centres unmarked) [1-hydroxymethyl-2,5-dihydroxy-6-isopropylamino-5,6,7,8-tetrahydronaphthalene] |  |  |  |  |  |  | bronchodilator activity (in words) [3]: bronchodilator
8 | CCCN(CCC)C1CCc2c(ccc(O)c2C(N)=O)C1 (racemic) [dl-2-Hydroxy-6-di-n-propylamino-5,6,7,8-tetrahydro-1-naphthalenecarboxamide] |  |  |  |  | 12% |  | 
9 | NC1CCc2cc(O)c(O)cc2C1 (centres unmarked) [ADTN, 2-amino-6,7-dihydroxy-1,2,3,4-tetralin] |  |  |  |  |  | dopamine-like action | 
10 | CN(C)C1CCc2c(ccc(O)c2O)C1 (centres unmarked) [Example M7, 2-dimethylamino-5,6-dihydroxy-1,2,3,4-tetralin] |  |  |  |  |  | dopamine-like activity; also recorded: Its action parallels that of apomorphine | 
